Assay results: publication PMC6737591, “Abstracts from the 22nd International Symposium on Signal Transduction at the Blood–Brain Barriers” (Fluids and Barriers of the CNS, 2019)

Assays:
[1] = target: T1, Creatine transporter (CRT) (Homo sapiens, UniProt P48029); test: [14C]cyclocreatine / [14C]creatine uptake by HEK293 cells; assay type: cell-based; parameters: endogenous in cells; host or cells: HEK293 cells; conditions: for inhibition of uptake by CRT-targeting siRNA: CRT protein expression reduced by 42%, substrate 9 µM
T1 sequence (P48029 1-635): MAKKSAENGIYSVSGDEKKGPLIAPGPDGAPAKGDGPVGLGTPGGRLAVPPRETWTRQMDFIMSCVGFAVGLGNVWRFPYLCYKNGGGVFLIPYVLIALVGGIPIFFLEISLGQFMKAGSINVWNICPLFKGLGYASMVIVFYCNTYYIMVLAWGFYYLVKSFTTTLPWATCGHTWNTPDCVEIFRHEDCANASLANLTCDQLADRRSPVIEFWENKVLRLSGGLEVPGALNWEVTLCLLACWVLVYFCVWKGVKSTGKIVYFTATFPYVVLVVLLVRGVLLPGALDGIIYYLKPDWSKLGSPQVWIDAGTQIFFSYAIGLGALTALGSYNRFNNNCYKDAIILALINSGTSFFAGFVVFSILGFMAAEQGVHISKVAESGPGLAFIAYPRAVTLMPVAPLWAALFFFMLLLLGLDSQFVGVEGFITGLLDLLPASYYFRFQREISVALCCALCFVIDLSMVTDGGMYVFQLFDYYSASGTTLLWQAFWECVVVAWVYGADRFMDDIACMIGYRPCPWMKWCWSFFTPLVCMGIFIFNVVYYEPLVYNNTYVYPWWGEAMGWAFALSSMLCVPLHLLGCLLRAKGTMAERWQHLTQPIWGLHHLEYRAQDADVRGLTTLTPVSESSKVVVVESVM
Description: (§1) Methods: Cells were incubated with [14C]cyclocreatine (9 µM) and [14C]creatine (9 µM) for the indicated times at 37 °C in the presence or absence of several compounds. siRNAs were transfected by lipofection. Protein and mRNA expressions were quantified by LC–MS/MS and qPCR, respectively.

[2] = target: T1, Creatine transporter (CRT); test: [14C]cyclocreatine / [14C]creatine uptake by hCMEC/D3 cells; assay type: cell-based; parameters: hCMEC/D3 cells, which are immortalized human brain microvascular endothelial cells; endogenous in cells; host or cells: hCMEC/D3 cells; conditions: for suppression of [14C]cyclocreatine uptake: [14C]cyclocreatine 9 µM, 37 °C; for inhibition of uptake by CRT-targeting siRNA: CRT mRNA expression reduced by 97%, substrate 9 µM
Description: as §1

[3] = tested on: Rat primary brain endothelial, pericyte and astroglial cell cultures; test: Kainate damage and drug protection in BBB culture model
Excerpt: In animal models of epilepsy induced by kainic acid, the primary ligand of ionotropic kainate receptors, BBB damage occurs, but the effect of kainate on brain endothelial cells has not been studied. Our aim was to examine the presence of kainate receptors and the effects of kainate on cultured cells of the BBB and to test anti-inflammatory and antioxidant drugs to protect against kainate-induced changes. Rat primary brain endothelial, pericyte and astroglial cell cultures were used to study cell viability by impedance measurement and cell morphology. BBB permeability was measured on a model made from the three cell types. The production of nitrogen monoxide and reactive oxygen species was followed by fluorescent probes. Four drugs were tested to protect against kainate-induced changes. The mRNA expression of kainate receptors and nitric oxide synthases (NOS) were studied by RT-PCR.

transgenic hAPP mice = test: PCN or NAC purified diet in transgenic hAPP mice; assay type: in vivo
Excerpt: Methods: To test our hypothesis, transgenic hAPP mice received a purified diet containing the PXR activator pregnenolone 16α-carbonitrile (PCN) or the ROS scavenger N-acetyl-L-cysteine (NAC). We assessed P-gp protein expression and transport activity, Aβ brain and plasma levels, capillary leakage, renal function and cognition to test the PCN or NAC effect in hAPP mice.

[4] = tested on: murine brain microvascular endothelial cells (MBMECs); test: NMDAR modulators on brain endothelial cells (electrophysiology, Ca2+, TEER, migration); assay type: cell-based; conditions: for NMDAR mediated current: whole cell recorded MBMECs, compared to control conditions
Excerpt: In neurodegenerative disorders, concentrations of extracellular neurotransmitter in the central nervous system (CNS) are out of balance. Glutamatergic dysregulation and extracellular glycine accumulation cause excitotoxicity and subsequent neuronal death. This process is largely mediated by N-methyl-D-aspartate receptor (NMDAR) activation. NMDARs are ionotropic receptors permeable for positive ions. In the CNS, they are composed by two obligatory NR1 subunits containing glycine binding sites and two NR2 subunits that are activated by glutamate. NR3 subunits which are less abundant in the CNS are activated by glycine. While neuronal NMDARs are well studied, their functional role on endothelial cells (ECs) is still to be investigated. ECs of the Blood Brain Barrier (BBB) are exposed to the extracellular milieu of the CNS and therefore to high concentrations of neurotransmitters. In this study, we investigated the effect of NMDAR modulators on murine brain microvascular endothelial cells (MBMECs).

astrocytes = test: Uptake in astrocytes cultured on the basolateral (brain) side; assay type: cell-based; conditions: rat astrocytes below bovine brain endothelial cells; fluorophore-labelled
Description: The propensity of Tat to facilitate brain endothelial cell adherence -and uptake as well as BBB permeation of NR2B9c and the N-dimer was assessed using primary bovine brain endothelial cells cultured in contact with rat astrocytes4.

[5] = Chemical stability in cell media supplemented with 10% FBS by UPLC; assay type: in vitro ADME; conditions: for % of initial remained intact: UPLC, cell media supplemented with 10% FBS, 4 h incubation, fluorophore-labelled constructs
Excerpt: All constructs were stable in PBS.

[6] = tested on: primary mouse brain microvascular endothelial cells (pMBMECs); test: Effector OT-I CD8+ T-cell interaction with antigen-pulsed pMBMECs under physiological flow; assay type: cell-based; conditions: SIINFEKL and MHC class I on WT pMBMECs
Excerpt: Methods and results: We used primary mouse brain microvascular endothelial cells (pMBMECs) as an in vitro model for BBB. […] We next investigated, if naive CD8+ T cells can interact with pMBMECs under physiological flow. […] This prompted us to investigate how endothelial Ag-presentation contributes to the interaction of effector OT-I CD8+ T-cells with pMBMECs under physiological flow.

[7] = substrate: NC1=NCCN1CC(=O)O; test: [14C]cyclocreatine / [14C]creatine uptake by HEK293 cells; assay type: cell-based; conditions: other: HEK293 cells, 37 °C, saturable kinetics
Description: as §1

[8] = 12-month old mice treated for 3 weeks

NC(N)=NCCC(=O)O [GPA, guanidinopropionic acid]
inhibition of [14C]cyclocreatine uptake ([1]; HEK293 cells, inhibitor 10 mM, [14C]cyclocreatine 9 µM, 37 °C): 96%
suppression of [14C]cyclocreatine uptake [2]: 91%

C=C(C)[C@H]1CN[C@H](C(=O)O)[C@H]1CC(=O)O [Kainate, kainic acid]
production of nitric oxide (NO) in brain endothelial cells ([3]; fluorescent probes): increased
viability or morphology of astroglial cells ([3]; rat primary astroglial cells): unchanged
effect on brain endothelial cells (viability by impedance) ([3]; rat primary brain endothelial cells, concentration- and time-dependent): damaged

CC(=O)N[C@@H](CS)C(=O)O [NAC, N-acetyl-L-cysteine]
barrier leakage (transgenic hAPP mice; [8]): reduced
renal function (transgenic hAPP mice; [8]): improved

CC(=O)[C@H]1[C@H](C#N)C[C@H]2[C@@H]3CC=C4C[C@@H](O)CC[C@]4(C)[C@H]3CC[C@@]21C [PCN, pregnenolone 16α-carbonitrile]
Aβ brain levels (transgenic hAPP mice; hAPP mice fed for 21 months): lowered
P-gp protein expression and transport activity (transgenic hAPP mice; hAPP mice fed for 21 months): restored
cognition (transgenic hAPP mice; hAPP mice fed for 21 months): improved

NC1=NCCN1CC(=O)O [[14C]cyclocreatine, cyclocreatine]
inhibition of uptake by CRT-targeting siRNA ([1]; HEK293 cells): 33%
inhibition of uptake by CRT-targeting siRNA [2]: 70%

CN(CC(=O)O)C(=N)N [creatine]
inhibition at 10000 µM ([1]; HEK293, read-out: inhibition of [14C]cyclocreatine uptake): 97%
inhibition of uptake by CRT-targeting siRNA ([1]; HEK293 cells): 37%
inhibition of uptake by CRT-targeting siRNA [2]: 63%
suppression of [14C]cyclocreatine uptake [2]: 91%

CC1=NN(c2ccccc2)C(=O)C1 [edaravone]
protection against the reduced cell viability and increased permeability caused by kainate ([3]; kainate-treated cells / BBB model): protected

N[C@@H](CCC(=O)O)C(=O)O [glutamate]
transendothelial electrical resistance (TEER) ([4]; MBMECs): No changes
NMDAR mediated current [4]: did neither evoke any

NCC(=O)O [glycine]
MBMEC migration ([4]; MBMECs): impaired
intracellular Ca2+ levels ([4]; MBMECs): increase
transendothelial electrical resistance (TEER) ([4]; MBMECs): reduced
NMDAR mediated current [4]: bigger

O=C(O)c1cccnc1C(=O)O [quinolinic acid]
transendothelial electrical resistance (TEER) ([4]; MBMECs): No changes
NMDAR mediated current [4]: did neither evoke any

NR2B9c: clinically relevant peptide drug entity (1 kDa) (KLSSIESDV; UniProt Q13224 1476-1484, looked up, fragment)
uptake in astrocytes cultured on the basolateral (brain) side (astrocytes): not
% of initial remained intact [5]: ~ 90%

SIINFEKL [cognate peptide antigen for OT-I CD8+ T cells]
T-cell crawling [6]: prohibited
T-cell migration rates [6]: decreased

Tat: 11-residue cationic peptide, tool to facilitate delivery of peptide drug entities into cells and across barriers
uptake in astrocytes cultured on the basolateral (brain) side (astrocytes): observed
% of initial remained intact [5]: ~ 50%
integrity in cell media (in words) ([5]; cell media, conclusion statement): extensive degradation

B1: Creatine transporter (CRT) (Homo sapiens) (protein)
chain: T1 sequence (P48029 1-635)
notes: endogenous in cells; host or cells: HEK293 cells
Km [7]: 188 µM
Vmax [7]: 273 pmol/mg protein/min
